Values of other authors, collected in patent US20080167325A1, “VALACYCLOVIR COMPOSITIONS” (priority 2006, published 2008).

Key:
[1] = first-pass hepatic metabolism through enzymatic hydrolysis
[2] = compared with acyclovir

converted to the active compound, acyclovir, and L-valine [1]: ~99% | bioavailability [2]: much improved bioavailability
SMILES: CC(C)[C@H](N)C(=O)OCCOCn1cnc2c(=O)[nH]c(N)nc21 [Valacyclovir, L-valine, 2-[(2-amino-1,6-dihydro-6-oxo-9H-purin-9-yl)methoxy]ethyl ester]
metabolized by cytochrome P450 enzymes (cytochrome P450 enzymes): Neither valacyclovir nor acyclovir is metabolized
